Patent US20240285548A1, “AGENT FOR PREVENTION AND/OR TREATMENT OF COGNITIVE IMPAIRMENT” (NATIONAL CEREBRAL AND CARDIOVASCULAR CENTER, priority 2022, published 2024)

Key:
[1] = system: patients with asymptomatic moderate or severe carotid artery stenosis/occlusion; assay: Montreal Cognitive Assessment (MoCA), change during observation period; assay type: in vivo, human; details: for β, resveratrol intake vs MoCA visuospatial cognitive function/executive function change: 79 patients, linear regression
Experimental: (§1) Subjects were patients with asymptomatic moderate or severe carotid artery stenosis/occlusion who visited the National Cerebral and Cardiovascular Center in Japan from July 2020 to August 2021 and who were taking or not taking trans-resveratrol in an amount of 30 mg/day. The inclusion criteria were as follows: (1) patients with asymptomatic moderate or severe carotid artery stenosis/occlusion who presented with a peak systolic velocity of 130 cm/s or more at a stenotic lesion on carotid ultrasonography (corresponding to a stenotic diameter of >50%) and who underwent test (2) and/or (3); (2) patients who underwent cognitive function tests (Alzheimer's Disease Assessment Scale-Cognitive subscale 13 (ADAS-Cog) and Montreal Cognitive Assessment (MoCA)) longitudinally twice; (3) patients who also underwent ^15O-gas positron emission tomography (PET) longitudinally twice in a similar manner. The primary outcome is a comparison of the amounts of change in ADAS-Cog during the observation period (differential analysis). The secondary outcomes are (1) a comparison of the amounts of change in MoCA during the observation period (differential analysis), and (2) a comparison of the amounts of change in cerebral blood flow on ^15O -gas PET (differential analysis). This study was initiated after receiving approval from the Research Ethics Review Committee of the National Cerebral and Cardiovascular Center (Research Project Number: R20113). In Example 1 above, the 82 subject patients included patients who were tested for both change in cognitive function and change in cerebral blood flow, as well as patients who were tested for only either change in cognitive function or change in cerebral blood flow. Therefore, based on the above results, the same analysis as in Example 1 was performed again on 79 patients who were tested for both change in cognitive function and change in cerebral blood flow from among the 82 patients. […] The baseline mean total MoCA scores were 23.6±3.6 in the non-RES group and 23.7±3.6 in the RES group. Further, the mean total ADAS-Cog scores were 14.6±5.4 in the non-RES group and 15.8±7.2 in the RES group. The mean observation periods were 244.8±86.9 and 221.2±61.9 days, respectively (p=0.18). The baseline scores were under the category of mild cognitive impairment (MCI) (Table 4). For the 79 patients, the amount of change in MoCA and ADAS-Cog scores was examined to investigate changes in cognitive function associated with administration of resveratrol. […] According to ADAS-Cog, a significant association was found with cognitive function improvement in the RES group in terms of delayed recall (0.5±1.6 VS. −0.9±1.8; p=0.001), memory domain (0.4±3.3 VS. −1.6±3.1; p=0.007), and total score (0.5±3.7 vs. −1.5±3.4; p=0.019). Therefore, after adjusting for age, gender, hypertension, diabetes, dyslipidemia, and coronary artery disease, a multivariate linear regression model analysis was performed. Resveratrol intake was an independent predictor of improvement in spatial cognitive and executive functions (β=0.26, 95% confidence interval [CI]: 0.062-1.15, p=0.03) and memory (memory domain: β=−0.26, 95% CI: −3.23 to −0.15, p=0.032; delayed recall: β=−0.37, 95% CI: −2.16 to −0.54, p=0.001) (Table 5). Accordingly, resveratrol may have contributed to improvement in the visuospatial cognitive function, executive function, and memory.

[2] = system: patients with asymptomatic moderate or severe carotid artery stenosis/occlusion; assay: Alzheimer's Disease Assessment Scale-Cognitive subscale 13 (ADAS-Cog), change during observation period; assay type: in vivo, human; details: for β, resveratrol intake vs ADAS-Cog delayed recall change / β, resveratrol intake vs ADAS-Cog memory domain change / β, resveratrol intake vs ADAS-Cog total change: 79 patients, linear regression
Experimental: as §1

[3] = system: patients with asymptomatic moderate or severe carotid artery stenosis/occlusion; assay: 15O-gas PET: cerebral blood flow, cerebral oxygen metabolic rate, cerebral oxygen uptake rate; assay type: in vivo, human; parameters: Cerebral blood flow change: entire right hemisphere / Cerebral blood flow change: entire left hemisphere / Cerebral blood flow change: right frontal lobe / Cerebral blood flow change: right callosomarginal artery area / Cerebral blood flow change: left callosomarginal artery area / Cerebral blood flow change: left lenticular nucleus / Cerebral blood flow change: left thalamus: unit not given here; details: for β, resveratrol intake vs cerebral blood flow change: Frontal circulation area / β, resveratrol intake vs cerebral blood flow change: Left callosomarginal artery area / β, resveratrol intake vs cerebral blood flow change: Left lenticular nucleus / β, resveratrol intake vs cerebral blood flow change: Right callosomarginal artery area / β, resveratrol intake vs cerebral blood flow change: Right precentral artery / β, resveratrol intake vs cerebral blood flow change: Thalamus, Left / β, resveratrol intake vs cerebral blood flow change: Thalamus, Right: 79 patients, linear regression
Experimental: Subjects were patients with asymptomatic moderate or severe carotid artery stenosis/occlusion who visited the National Cerebral and Cardiovascular Center in Japan from July 2020 to August 2021 and who were taking or not taking trans-resveratrol in an amount of 30 mg/day. The inclusion criteria were as follows: (1) patients with asymptomatic moderate or severe carotid artery stenosis/occlusion who presented with a peak systolic velocity of 130 cm/s or more at a stenotic lesion on carotid ultrasonography (corresponding to a stenotic diameter of >50%) and who underwent test (2) and/or (3); (2) patients who underwent cognitive function tests (Alzheimer's Disease Assessment Scale-Cognitive subscale 13 (ADAS-Cog) and Montreal Cognitive Assessment (MoCA)) longitudinally twice; (3) patients who also underwent ^15O-gas positron emission tomography (PET) longitudinally twice in a similar manner. The primary outcome is a comparison of the amounts of change in ADAS-Cog during the observation period (differential analysis). The secondary outcomes are (1) a comparison of the amounts of change in MoCA during the observation period (differential analysis), and (2) a comparison of the amounts of change in cerebral blood flow on ^15O -gas PET (differential analysis). This study was initiated after receiving approval from the Research Ethics Review Committee of the National Cerebral and Cardiovascular Center (Research Project Number: R20113). All PET images were anatomically standardized using linear and nonlinear transformations with SPM2 to ensure that the brain images of all patients had the same anatomical format, and the cerebral blood flow was quantified using 3DSRT (PDRadiopharma Inc., Tokyo, Japan). Each hemisphere was divided into twelve ROI segments, grouped according to the arterial supply: callosomarginal artery area, pericallosal artery area, precentral artery area, central artery area, angular artery area, parietal lobe, temporal lobe, occipital lobe, hippocampus, lenticular nucleus, thalamus, and cerebellum. The frontal circulation areas were defined to be the callosomarginal artery area, pericallosal artery area, precentral artery area, and central artery area. In quantifying the relative cerebral blood flow, counts under each ROI were normalized to an average cerebral blood flow count within the bilateral cerebellum. […] Using 3D-SRT (FUJIFILM RI Pharma, Tokyo, Japan), the difference in the amount of change was analyzed (for the RES group, the difference between the cerebral blood flow before RES administration (relative to cerebellum) and the cerebral blood flow after RES administration (relative to cerebellum); for the non-RES group, the cerebral blood flow at intervals of 6 months to 1 year (relative to cerebellum)). […] In Example 1 above, the 82 subject patients included patients who were tested for both change in cognitive function and change in cerebral blood flow, as well as patients who were tested for only either change in cognitive function or change in cerebral blood flow. Therefore, based on the above results, the same analysis as in Example 1 was performed again on 79 patients who were tested for both change in cognitive function and change in cerebral blood flow from among the 82 patients. To identify the reason associated with significant improvements in the visuospatial cognitive function, executive function, and memory in the RES group, cerebral blood flow was measured. Initially, the cerebral blood flow change in each entire hemisphere was analyzed. […] To examine the changes in detail, the cerebral blood flow was analyzed in terms of the frontal lobe, basal ganglia, and thalamus, which govern the visuospatial cognitive and executive functions, and memory. Longitudinally, long-term resveratrol intake was associated with a significant increase in cerebral blood flow in the right frontal lobe (non-RES group: 0.001±0.037, RES group: 0.019±0.033; p=0.027)). […]

[4] = system: patients with asymptomatic moderate or severe carotid artery stenosis/occlusion; assay: Adverse events during long-term resveratrol intake; assay type: in vivo, human; details: Example 2, 30 mg/day
Excerpt: The baseline mean total MoCA scores were 23.6±3.6 in the non-RES group and 23.7±3.6 in the RES group. Further, the mean total ADAS-Cog scores were 14.6±5.4 in the non-RES group and 15.8±7.2 in the RES group. The mean observation periods were 244.8±86.9 and 221.2±61.9 days, respectively (p=0.18). The baseline scores were under the category of mild cognitive impairment (MCI) (Table 4).
To identify the reason associated with significant improvements in the visuospatial cognitive function, executive function, and memory in the RES group, cerebral blood flow was measured. Initially, the cerebral blood flow change in each entire hemisphere was analyzed. […] To examine the changes in detail, the cerebral blood flow was analyzed in terms of the frontal lobe, basal ganglia, and thalamus, which govern the visuospatial cognitive and executive functions, and memory. Longitudinally, long-term resveratrol intake was associated with a significant increase in cerebral blood flow in the right frontal lobe (non-RES group: 0.001±0.037, RES group: 0.019±0.033; p=0.027)). […] Therefore, long-term resveratrol intake may contribute not only to improvement of cognitive function but also to increase in cerebral blood flow.

[5] = system: human Alzheimer's patients; details: 500 mg of resveratrol; NPL 5; cited from earlier work
[6] = system: carotid artery occlusion model mice; details: NPL 3; cited from earlier work
[7] = Example 1, RES group 37 of 82 patients, 30 mg/day
[8] = Example 2, RES group n = 36 of 79 patients, 30 mg/day
[9] = Example 2, multivariate analysis
[10] = Example 1, relative to cerebellum, before vs after RES administration, 30 mg/day
[11] = Example 2, multivariable analysis
[12] = Example 2, univariable analysis

Oc1ccc(/C=C/c2cc(O)cc(O)c2)cc1 [resveratrol, 3,4′, 5-trihydroxy-trans-stilbene]
Amount of change in MoCA: Executive function/spatial cognitive function [1, 7]: 0.35 ± 1.0 | β, resveratrol intake vs MoCA visuospatial cognitive function/executive function change ([1]; Example 2, multivariate analysis adjusted for age, gender, hypertension, diabetes, dyslipidemia, coronary artery disease): 0.26 | β, resveratrol intake vs MoCA visuospatial cognitive function/executive function change ([1]; Example 2, univariate analysis): 0.257 | Amount of change in MoCA: visuospatial cognitive and executive functions [1, 8]: 0.4±0.9 | Amount of change in total MoCA score [1, 8]: 0.4±2.6 | Amount of change in ADAS-Cog: Total [2, 7]: −1.48 ± 3.4 | Amount of change in ADAS-Cog: delayed recall [2, 7]: −0.89 ± 1.7 | Amount of change in ADAS-Cog: memory domain [2, 7]: −1.65 ± 3.0 | β, resveratrol intake vs ADAS-Cog delayed recall change [2, 9]: −0.37 | β, resveratrol intake vs ADAS-Cog memory domain change [2, 9]: −0.26 | β, resveratrol intake vs ADAS-Cog total change [2, 9]: −0.18 | β, resveratrol intake vs ADAS-Cog delayed recall change ([2]; Example 2, univariate analysis): −0.37 | β, resveratrol intake vs ADAS-Cog memory domain change ([2]; Example 2, univariate analysis): −0.30 | β, resveratrol intake vs ADAS-Cog total change ([2]; Example 2, univariate analysis): −0.26 | Amount of change in ADAS-Cog: delayed recall [2, 8]: −0.9±1.8 | Amount of change in ADAS-Cog: memory domain [2, 8]: −1.6±3.1 | Amount of change in ADAS-Cog: total score [2, 8]: −1.5±3.4 | Cerebral oxygen uptake rate ([3]; Example 1, 30 mg/day): no association | Cerebral oxygen metabolic rate ([3]; Example 1, all areas, 30 mg/day): tendency for an association between RES intake and an increase in the cerebral oxygen metabolic rate | Cerebral blood flow in other areas ([3]; Example 1, areas other than those of Table 3, relative to cerebellum): tendency for an association between RES intake and an increase in the cerebral blood flow | Amount of change in cerebral blood flow: Left callosomarginal artery area [3, 10]: 0.171 ± 0.42 | Amount of change in cerebral blood flow: Left putamen [3, 10]: 0.19 ± 0.57 | Amount of change in cerebral blood flow: Left thalamus [3, 10]: 0.449 ± 0.90 | Amount of change in cerebral blood flow: Right callosomarginal artery area [3, 10]: 0.179 ± 0.34 | Amount of change in cerebral blood flow: Right frontal lobe [3, 10]: 0.215 ± 0.35 | Amount of change in cerebral blood flow: Right thalamus [3, 10]: 0.393 ± 0.85 | β, resveratrol intake vs cerebral blood flow change: Frontal circulation area [3, 11]: 0.25 | β, resveratrol intake vs cerebral blood flow change: Left callosomarginal artery area [3, 11]: 0.27 | β, resveratrol intake vs cerebral blood flow change: Left lenticular nucleus [3, 11]: 0.31 | β, resveratrol intake vs cerebral blood flow change: Right callosomarginal artery area [3, 11]: 0.29 | β, resveratrol intake vs cerebral blood flow change: Right precentral artery [3, 11]: 0.25 | β, resveratrol intake vs cerebral blood flow change: Thalamus, Left [3, 11]: 0.29 | β, resveratrol intake vs cerebral blood flow change: Thalamus, Right [3, 11]: 0.23 | β, resveratrol intake vs cerebral blood flow change: Frontal circulation area [3, 12]: 0.25 | β, resveratrol intake vs cerebral blood flow change: Left callosomarginal artery area [3, 12]: 0.24 | β, resveratrol intake vs cerebral blood flow change: Left lenticular nucleus [3, 12]: 0.29 | β, resveratrol intake vs cerebral blood flow change: Right callosomarginal artery area [3, 12]: 0.28 | β, resveratrol intake vs cerebral blood flow change: Right precentral artery [3, 12]: 0.25 | β, resveratrol intake vs cerebral blood flow change: Thalamus, Left [3, 12]: 0.29 | β, resveratrol intake vs cerebral blood flow change: Thalamus, Right [3, 12]: 0.24 | Cerebral blood flow change: entire left hemisphere [3, 8]: 0.014±0.031 | Cerebral blood flow change: entire right hemisphere [3, 8]: 0.016±0.032 | Cerebral blood flow change: left callosomarginal artery area [3, 8]: 0.017±0.042 | Cerebral blood flow change: left lenticular nucleus [3, 8]: 0.033±0.06 | Cerebral blood flow change: left thalamus [3, 8]: 0.045±0.090 | Cerebral blood flow change: right callosomarginal artery area [3, 8]: 0.018±0.034 | Cerebral blood flow change: right frontal lobe [3, 8]: 0.019±0.033 | Cerebral blood flow change: right precentral artery area [3, 8]: 0.021±0.035 | Cerebral blood flow change: right thalamus [3, 8]: 0.039±0.85 | Adverse events [4]: no adverse events observed | Effect in human Alzheimer's patients [5]: no effect was observed | Autophagy [6]: activation of autophagy | Cognitive function [6]: improvement in cognitive function | Oxidative stress-induced nerve damage [6]: reduced oxidative stress-induced nerve damage
